Reference: patent US9193989B2, “PRPK-TPRKB modulators and uses thereof” (TAIHO PHARMACEUTICAL CO., LTD., priority 2010, dated 2015)

Experiments:
PRPK/TPRKB = target: T1, PRPK/TPRKB (Homo sapiens, UniProt Q96S44+Q9Y3C4); assay: Competition for PRPK/TPRKB binding to the pomalidomide-based affinity reagent (affigel pulldown); details: FIG. 4; excess free competitor
T1 construct: host or cells: HEK-293FT
Protocol: Cell lysates were prepared from 2×10^8 Jeko-1, Jurkat, or HS-Sultan cells or 5×10^7 HeLa S3 cells per pulldown sample by lysis in 2 mL Buffer B (50 mM HEPES pH 7.5, 5% glycerol, 1.5 mM MgCl2, 150 mM NaCl, 1 mM Na3VO4, 25 mM NaF, 0.4% Nonidet P-40, 1 mM DTT, and 1 Complete Mini EDTA-free protease inhibitor tablet per 10-25 mL Buffer B). Lysates were incubated on ice for 30 mM, followed by 2× freeze-thaw using liquid N2 and 37° C. water bath in polypropylene tubes. Samples were centrifuged at 1800 rpm for 5 mM at 4° C. Supernatants were ultracentrifuged at 55,000 rpm for 1 hr at 4° C. Supernatants were collected and pre-cleared with 10 μL control affigel reagent (affigel-ethanolamine or affigel-PEG linker) by incubation on a rotator for 30 mM at 4° C. Pre-cleared lysates were transferred to Mobicol 1 mL columns with 90 μm pore size frit on ice and centrifuged at 0.1 rcf for 10 sec to separate affigel beads from lysates. Incubations with pre-cleared lysates and excess pomalidomide were performed at a 20-fold excess competitor concentration (500 μM final concentration) on a rotator for 30 mM at 4° C. Subsequently, 10 μL control or pomalidomide-based affigel reagents were added to each sample and pulldowns were performed for 1 hr at 4° C. Lysates and affigel reagents were transferred to Mobicol 1 mL columns with 90 μm pore size frit and affigel beads were washed 3× with 800 μL Buffer B and 2× with 800 μL Buffer A (Buffer B not including 0.4% Nonidet P-40). Columns were centrifuged for 30 sec at 0.1 rcf to remove any remaining wash buffer and then closed with lower plug. Columns were placed in 1.5 mL Low-binding Eppendorf tubes and heated at 50° C. for 30 mM in 40 uL 2×SDS sample buffer with 10 mM DTT to elute bound proteins from affigel reagents. Columns were then opened and eluents were collected in the low-binding Eppendorf tubes by 15 sec centrifugation at 1600 rpm. Samples were applied and resolved on 4-12% SDS-PAGE gels followed by silver staining (SilverQuest Kit, Invitrogen, Carlsbad, Calif.). Bands which were competed by excess actimid competitor but not by DMSO were excised and identified by LC/MS/MS analysis at the Beth Israel Deaconess Medical Center Mass Spectrometry Core Facility (Boston, Mass.).
C-term Myc-DDK tagged PRPK and C-term Myc-DDK tagged TPRKB proteins were transiently overexpressed from cDNAs (obtained from Origene, Rockville, Md.) in HEK-293FT cells using FuGENE-6 transfection reagent according to the manufacturer's protocol (Roche, Indianapolis, Ind.). One day prior to transfection, 2.5×10^6 HEK-293FT cells were plated per p100 dish. Cells were lysed 48 hr post-transfection in 1-2 mL Buffer B per p100 dish per sample. […] The amount of PRPK and TPRKB captured by each affinity reagent was determined by silver stain and anti-DDK (anti-DDK monoclonal antibody, Origene) Western blot. Competition experiments were also performed using a variety of compounds and derivatives (pomalidomide, lenalidomide, thalidomide, CMPD 31, CMPD 30, CMPD 29).

[1] = test system: natural killer cells in PBMCs; assay: Natural killer cell assay (DELFIA NK lytic activity); format: cell-based, human; details: FIG. 9; anti-CD3 stimulated PBMCs, 72 hours
Protocol: On the day of initial treatment, cryopreserved peripheral blood mononuclear cells from a healthy donor (PBMCs; Astarte Biologics) were thawed in RPMI-1640 containing 10% fetal bovine serum, 1% penicillin-streptomycin and 25 mM HEPES buffer (complete medium) at 37° C. PBMCs were centrifuged two times at 1000 rpm to remove residual DMSO and debris and counted on a haemocytometer. Cells were used at a final cell density of 1×10^6 cells per mL in complete medium. […]
Following the 72 hour treatment, NK cells were assayed for lytic activity using the DELFIA cell cytoxicity assay from Perkin-Elmer according to manufacturer's instructions. […] K562 cells were resuspended in DMEM containing 10% fetal bovine serum and 1% penicillin-streptomycin, counted on a hemacytometer and diluted to 1×10^6 cells per mL. […] Europium solution (200 μL) was added to the supernatants and the plate was placed on a Wallac Victor microplate reader. Following a 15 minute orbital shake at high speed, the plate was read using time-resolved fluorescence (Excitation at 340 nm, Emission at 615 nm; delay 400 μsec; counting window 400 μsec, cycle 1000 μsec). […]

[2] = test system: IL-2 production by Jurkat and PBMCs; assay: IL-2 production assay, inhibition with CMPD 31; format: cell-based, human; details: FIG. 8; CMPD 31 at final concentration of 10 μM
From the text: This protocol describes the technique to detect the amount of IL-2 produced by Jurkat and PBMCs in 96-well format. This assay was used to calculate IL-2 production EC50 values of lenalidomide, pomalidomide, all derivatives and inhibition with CMPD 31.
Logarithmically growing Jurkat cells from ATCC (clone E6-1) or frozen and thawed human PBMCs from Astarte (Peripheral Blood Mononuclear Cells, normal Donor 41) were resuspended at 1×10^6 cells/mL in RPMI-1640 medium containing 10% FBS and 1% antibiotic/antimycotic solution. Cells were plated into each well of a 96-well anti-CD3 plate (Becton Dickinson catalogue number #354725) at 1×10^5 cells/100 μl per well. […]
Compound daughter plates were resuspended in 200 μL of RPMI-1640 medium as a 10× stock and then 20 μL of the 10× stock was added to each anti-CD3 antibody assay plate well with a final volume of 200 μl by the addition of 80 μl of complete media. […] The amount of IL-2 produced was determined by an ELISA assay and was performed in one of two ways as per manufacturer instructions; by a standard ELISA (Enzyme-Linked Immunosorbent Assay) protocol method (Becton Dickinson) or an AlphaLISA protocol (Perkin Elmer). […]

B cell growth = assay: Growth inhibition assay, inhibition with CMPD 31; format: cell-based; details: FIG. 8; CMPD 31 at final concentration of 10 μM
Protocol: This protocol describes the technique to perform growth inhibition assays in 96-well format. This assay was used to calculate growth inhibition IC50 values of lenalidomide, pomalidomide, all derivatives and inhibition with CMPD31.
Cell lines Jurkat, NCI-H929, and JeKo-1 were obtained from ATCC and were maintained by vendor-specified media requirements. Cells were plated in 96-well plates at 3,750 cells per well (Jeko-1, HS-Sultan) or 5,000 cell per well (NCI-H929) in 90 μL of assay growth medium (RPMI-1640, 10% FBS, 1% pen-strep). Cells in plates were allowed to incubate at room temperature for one hour and then transferred to an incubator set at 37° C. and 5% CO2 humidified air overnight.
Compounds were serially diluted 3-fold in 100% DMSO into duplicate 10-point dose curves using a Biomek FX liquid handler in columns 2 through 11 of a 96-well U-bottom plate. Starting concentrations of compounds was 10 mM. Daughter plates containing 2 μL of the compound dose curves were stamped and stored at −80 C. […]
Compound and control daughter plates were diluted 100-fold in 200 μl of assay growth medium and then finally diluted 10-fold more into the 96-well cell plates; a final dilution of 1000-fold in 0.1% DMSO for all wells. […] Plates were incubated for 2 hours at 37° C. in 5% CO2 and then plates were read on a Perkin Elmer Victor^3 V plate reader with excitation at 560 nm and emission at 590 nm. […]

T1 sequence (Q96S44 whole entry, other chains not shown): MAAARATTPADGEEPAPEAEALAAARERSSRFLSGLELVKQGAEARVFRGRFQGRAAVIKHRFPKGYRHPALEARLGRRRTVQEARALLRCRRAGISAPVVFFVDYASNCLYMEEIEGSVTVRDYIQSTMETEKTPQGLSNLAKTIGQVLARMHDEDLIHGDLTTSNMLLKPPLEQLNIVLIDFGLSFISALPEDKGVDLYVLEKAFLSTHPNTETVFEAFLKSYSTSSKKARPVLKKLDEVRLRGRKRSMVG

CN1C(=O)CCC(N2C(=O)c3cccc(N)c3C2=O)C1=O (stereo not shown) [CMPD 29, 4-Amino-2-(1-methyl-2,6-dioxopiperidin-3-yl)isoindoline-1,3-dione]
compete for PRPK/TPRKB target binding to the pomalidomide-based affinity reagent (PRPK/TPRKB): compete

Nc1cccc2c1CN(C1CCC(=O)NC1=O)C2=O (stereo not shown) [lenalidomide]
compete for PRPK/TPRKB target binding to the pomalidomide-based affinity reagent (PRPK/TPRKB): compete | natural killer cell activation in PBMCs [1]: activation

Nc1ccc2c(c1)C(=O)N(C1CCC(=O)NC1=O)C2=O (stereo not shown) [CMPD 31]
compete for PRPK/TPRKB target binding to the pomalidomide-based affinity reagent (PRPK/TPRKB): compete | suppression of the activity of lenalidomide and pomalidomide in induction of IL-2 production [2]: suppresses | suppression of the activity of lenalidomide and pomalidomide in inhibition of B cell growth (B cell growth): suppresses

O=C1CCC(N2C(=O)c3ccccc3C2=O)C(=O)N1 (stereo not shown) [thalidomide]
compete for PRPK/TPRKB target binding to the pomalidomide-based affinity reagent (PRPK/TPRKB): compete

Nc1cccc2c1C(=O)N(C1CCC(=O)NC1=O)C2=O (stereo not shown) [pomalidomide]
compete for PRPK/TPRKB target binding to the pomalidomide-based affinity reagent (PRPK/TPRKB): compete | natural killer cell activation in PBMCs [1]: activation

Nc1cccc2c1C(=O)N([C@H]1CCC(=O)NC1)C2=O [CMPD 30, (S)-4-Amino-2-(6-oxopiperidin-3-yl)isoindoline-1,3-dione]
compete for PRPK/TPRKB target binding to the pomalidomide-based affinity reagent (PRPK/TPRKB): does not
